Measurements published in US8637499B2, “Benzoxazepines as inhibitors of PI3K/mTOR and methods of their use and manufacture” (Exelixis, Inc., priority 2009, dated 2014).

Tests used:
PI3Kα = PI3Kα (Homo sapiens, UniProt P42336); experiment: PI3K Biochemical Assays (ATP consumption, luciferase-luciferin chemiluminescence); settings: PI3Kα 1.5 nM, ATP 1 μM, PIP2 10 μM; percent of ATP consumed
Procedure, shortened: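 Enzyme (1.5 nM), PIP2 substrate (10 μM) and ATP (1 μM) react about 2 h at room temperature in Tris buffer pH 7.5 with MgCl2, EGTA, DTT and CHAPS. Remaining ATP detected by Kinase-Glo luminescence; total consumption limited to 40-60%.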

mTORC1 (mTOR/GbL/Raptor) = mTORC1 (mTOR/GbL/Raptor) (Homo sapiens, UniProt P42345); experiment: mTOR/GbL/Raptor (mTORC1) ELISA Assay; assay type: biochemical; settings: 0.2 nM mTORC1, 10 μM ATP, 50 nM NHis-tagged 4E-BP1; phosphorylation of 4E-BP1; read-out: IC50
Procedure, shortened: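 Detection used Ni-chelate capture of His-tagged 4E-BP1, then anti-phospho-4E-BP1 and HRP anti-IgG with luminescent ELISA substrate. Reactions ran 120 min at ambient temperature with 0.2 nM mTORC1, 10 μM ATP, 50 nM 4E-BP1, 10 mM MnCl2, pH 7.2 Hepes.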

Chain of PI3Kα (P42336 whole entry): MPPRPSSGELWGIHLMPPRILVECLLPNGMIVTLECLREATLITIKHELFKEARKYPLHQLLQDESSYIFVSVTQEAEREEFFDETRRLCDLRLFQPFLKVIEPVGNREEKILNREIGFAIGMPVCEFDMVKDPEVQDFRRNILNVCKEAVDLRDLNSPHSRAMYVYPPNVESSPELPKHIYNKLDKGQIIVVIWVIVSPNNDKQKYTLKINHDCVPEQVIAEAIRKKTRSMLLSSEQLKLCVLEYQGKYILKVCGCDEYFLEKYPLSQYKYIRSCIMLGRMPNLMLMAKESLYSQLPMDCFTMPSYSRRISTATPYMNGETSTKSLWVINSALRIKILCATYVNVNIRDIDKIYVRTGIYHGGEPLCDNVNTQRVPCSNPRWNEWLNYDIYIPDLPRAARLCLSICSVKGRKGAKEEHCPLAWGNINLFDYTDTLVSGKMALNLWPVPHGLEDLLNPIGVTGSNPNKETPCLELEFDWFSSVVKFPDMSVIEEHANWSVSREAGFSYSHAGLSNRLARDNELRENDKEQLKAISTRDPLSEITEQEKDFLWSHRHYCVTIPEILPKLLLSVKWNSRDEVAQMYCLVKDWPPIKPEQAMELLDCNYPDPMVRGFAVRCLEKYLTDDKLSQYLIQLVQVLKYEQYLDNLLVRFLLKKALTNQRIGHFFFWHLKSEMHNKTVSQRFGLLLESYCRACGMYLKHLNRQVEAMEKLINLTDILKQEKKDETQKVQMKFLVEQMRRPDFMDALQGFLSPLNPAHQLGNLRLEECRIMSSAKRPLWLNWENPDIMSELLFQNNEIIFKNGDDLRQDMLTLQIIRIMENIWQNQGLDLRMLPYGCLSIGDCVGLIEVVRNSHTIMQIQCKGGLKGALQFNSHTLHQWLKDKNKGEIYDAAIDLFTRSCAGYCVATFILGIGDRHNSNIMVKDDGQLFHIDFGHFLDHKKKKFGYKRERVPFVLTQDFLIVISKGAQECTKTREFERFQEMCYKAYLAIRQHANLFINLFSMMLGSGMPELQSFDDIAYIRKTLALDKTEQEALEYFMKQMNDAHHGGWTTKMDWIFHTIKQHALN
Chain of PI3Kα (P27986 whole entry partner): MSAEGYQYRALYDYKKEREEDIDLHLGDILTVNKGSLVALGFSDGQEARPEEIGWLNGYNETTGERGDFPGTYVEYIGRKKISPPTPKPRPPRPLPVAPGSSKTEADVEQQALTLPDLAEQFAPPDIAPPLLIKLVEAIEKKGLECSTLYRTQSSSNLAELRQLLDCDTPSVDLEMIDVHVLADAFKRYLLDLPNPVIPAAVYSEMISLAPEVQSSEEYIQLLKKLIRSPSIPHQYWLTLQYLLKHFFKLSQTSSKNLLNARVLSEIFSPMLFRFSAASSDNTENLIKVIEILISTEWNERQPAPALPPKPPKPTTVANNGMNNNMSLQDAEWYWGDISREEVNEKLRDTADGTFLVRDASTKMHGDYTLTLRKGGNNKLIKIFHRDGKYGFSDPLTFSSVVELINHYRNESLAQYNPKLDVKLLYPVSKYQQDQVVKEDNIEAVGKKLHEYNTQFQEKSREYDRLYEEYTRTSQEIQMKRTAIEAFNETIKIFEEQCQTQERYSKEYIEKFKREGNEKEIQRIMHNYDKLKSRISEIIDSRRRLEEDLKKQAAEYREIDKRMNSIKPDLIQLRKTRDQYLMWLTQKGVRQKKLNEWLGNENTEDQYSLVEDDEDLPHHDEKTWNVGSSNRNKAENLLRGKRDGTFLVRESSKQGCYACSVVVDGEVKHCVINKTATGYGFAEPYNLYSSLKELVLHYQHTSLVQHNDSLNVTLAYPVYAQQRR

| IC50 (PI3Kα) | IC50 (mTORC1 (mTOR/GbL/Raptor)) | Compound |
| --- | --- | --- |
| ≤ 75 nM | ≤ 50 nM | CCNc1nc2ncc(-c3ccc4c(c3)CN(C(=O)N3[C@@H]5CC[C@H]3C[C@](O)(C(F)(F)F)C5)CCO4)cc2[nH]1 [Compound 179, 8-({7-[2-(ethylamino)-1H-imidazo[4,5-b]pyridin-6-yl]-2,3-dihydro-1,4-benzoxazepin-4(5H)-yl}carbonyl)-3-(trifluoromethyl)-8-azabicyclo[3.2.1]octan-3-(endo)-ol] |
| ≤ 75 nM | ≤ 50 nM | CS(=O)(=O)Nc1cc(-c2ccc3c(c2)CN(C(=O)N2C4CCC2CC(O)(C(F)(F)F)C4)CCO3)cnc1Cl (stereo not shown) [Compound 181, N-[2-chloro-5-(4-{[3-hydroxy-3-(trifluoromethyl)-8-azabicyclo[3.2.1]oct-8-yl]carbonyl}-2,3,4,5-tetrahydro-1,4-benzoxazepin-7-yl)pyridin-3-yl]methanesulfonamide] |
